Values of other authors in patent US9849144B2 (Healios Oncology Nutrition, LLC, priority 2013, dated 2017).

Columns and labels:
[1] = in vivo
CaCo-2 cells = details: glucose containing disaccharides

| relative humidity up to which crystalline form is stable and remains free flowing | Compound | daily dose with no safety or toxicity concerns [1] | increase of GLN uptake (CaCo-2 cells) |
| --- | --- | --- | --- |
| – | NC(=O)CC[C@H](N)C(=O)O [Glutamine, L-glutamine] | up to 40 grams a day | – |
| up to 94 % relative humidity | OC[C@H]1O[C@H](O[C@H]2O[C@H](CO)[C@@H](O)[C@H](O)[C@H]2O)[C@H](O)[C@@H](O)[C@@H]1O [trehalose, α-D-glucopyranosyl-1,1-α-D-glucopyranoside] | – | a thousand fold |
